Assays:
Enterococcus faecalis = experiment: Antibacterial activity against Enterococcus faecalis assessed as bacterial growth inhibition incubated for 18 hrs by CLSI protocol based Mueller-Hinton broth assay; assay type: functional; details: Enterococcus faecalis, 18 h, read-out: MIC
Staphylococcus aureus [1] = experiment: Antibacterial activity against methicillin-resistant Staphylococcus aureus clinical isolates assessed as bacterial growth inhibition incubated for 18 hrs by CLSI protocol based Mueller-Hinton broth assay; assay type: functional
Escherichia coli = experiment: Antibacterial activity against Escherichia coli assessed as bacterial growth inhibition incubated for 18 hrs by CLSI protocol based Mueller-Hinton broth assay; assay type: functional; details: Escherichia coli, 18 h, read-out: MIC
[2] = system: Stenotrophomonas maltophilia; experiment: Antibacterial activity against Stenotrophomonas maltophilia assessed as bacterial growth inhibition incubated for 18 hrs by CLSI protocol based Mueller-Hinton broth assay; assay type: functional; details: Stenotrophomonas maltophilia, read-out: MIC
Staphylococcus aureus [3] = experiment: Antibacterial activity against methicillin-resistant Staphylococcus aureus assessed as bacterial growth inhibition incubated for 18 hrs by CLSI protocol based Mueller-Hinton broth assay; assay type: functional; details: Staphylococcus aureus, read-out: MIC
[4] = Hemolytic activity in sheep RBC assessed as hemolysis incubated for 1 hr by microplate reader method; assay type: toxicity, cell-based, Ovis aries, Erythrocyte; details: sheep red blood cells
[5] = Selectivity index, ratio of HC50 for hemolytic activity in sheep RBC to MIC for antibacterial activity against methicillin-resistant Staphylococcus aureus assessed as bacterial growth inhibition; assay type: toxicity; details: sheep red blood cells

Row | Structure (SMILES) | MIC (Enterococcus faecalis) [µg/mL] | MIC (Staphylococcus aureus [1]) [µg/mL] | MIC (Escherichia coli) [µg/mL] | MIC [2] [µg/mL] | MIC (Staphylococcus aureus [3]) [µg/mL] | HC50 at 1 h [4] [µg/mL] | selectivity ratio [5]
1 | CCCCCCCN(CCCOc1ccc(OCCCN(CCCCCCC)C(=O)[C@@H](N)CCCCN)cc1)C(=O)[C@@H](N)CCCCN.Cl.Cl.Cl.Cl | 1 | 0.5 | 4 | 2 | 2 | 402 | 201
2 | CCCCCCN(CCCOc1cc2ccccc2cc1OCCCN(CCCCCC)C(=O)[C@@H](N)CCCCN)C(=O)[C@@H](N)CCCCN.Cl.Cl.Cl.Cl | 1 | 0.5 | 8 | 4 | 1 | > 1000 | > 1000
3 | CCCCCCCN(CCCOc1cccc(OCCCN(CCCCCCC)C(=O)[C@@H](N)CCCCN)c1)C(=O)[C@@H](N)CCCCN.Cl.Cl.Cl.Cl | 1 | 0.5 | 2 | 4 | 1 | 814 | 814
4 | CCCCCCN(CCCOc1cccc(OCCCN(CCCCCC)C(=O)[C@@H](N)CCCCN)c1)C(=O)[C@@H](N)CCCCN.Cl.Cl.Cl.Cl | 4 | 0.5 | 16 | 8 | 2 | > 1000 | > 500
5 | CCCCCCCN(CCOc1ccc(OCCN(CCCCCCC)C(=O)[C@@H](N)CCCCN)cc1)C(=O)[C@@H](N)CCCCN.Cl.Cl.Cl.Cl | 1 | 0.5 | 4 | 2 | 1 | 478 | 478
6 | CCCCCCN(CCCOc1ccc2c(OCCCN(CCCCCC)C(=O)[C@@H](N)CCCCN)cccc2c1)C(=O)[C@@H](N)CCCN.Cl.Cl.Cl.Cl | 2 | 0.5 | 2 | 2 | 2 | 612 | 306
7 | CCCCCCN(CCCOc1ccc(OCCCN(CCCCCC)C(=O)[C@@H](N)CCCCN)cc1)C(=O)[C@@H](N)CCCCN.Cl.Cl.Cl.Cl | 4 | 0.5 | 16 | 16 | 4 | > 1000 | > 250
8 | CCCCCCN(CCCCOc1ccc(OCCCCN(CCCCCC)C(=O)[C@@H](N)CCCCN)cc1)C(=O)[C@@H](N)CCCCN.Cl.Cl.Cl.Cl | 4 | 0.5 | 4 | 4 | 4 | 868 | 217
9 | CCCCCCN(CCCOc1ccc2ccccc2c1-c1c(OCCCN(CCCCCC)C(=O)[C@@H](N)CCCCN)ccc2ccccc12)C(=O)[C@@H](N)CCCCN.Cl.Cl.Cl.Cl (stereo in doubt; 8m) | 1 | – | 2 | 1 | 1 | 61 | 61
10 | CCCCCCN(CCCOc1ccccc1OCCCN(CCCCCC)C(=O)[C@@H](N)CCCCN)C(=O)[C@@H](N)CCCCN.Cl.Cl.Cl.Cl | 8 | – | 64 | 32 | 8 | > 1000 | > 125
11 | CCCCN(CCCOc1ccccc1-c1ccccc1OCCCN(CCCC)C(=O)[C@@H](N)CCCCN)C(=O)[C@@H](N)CCCCN.Cl.Cl.Cl.Cl | 8 | – | 32 | 32 | 8 | > 1000 | > 125
12 | CCCCCCCN(CCCCOc1ccc(OCCCCN(CCCCCCC)C(=O)[C@@H](N)CCCCN)cc1)C(=O)[C@@H](N)CCCCN.Cl.Cl.Cl.Cl | 1 | – | 1 | 1 | 2 | 148 | 74
13 | CCCCCCCCN(CCOc1ccc(OCCN(CCCCCCCC)C(=O)[C@@H](N)CCCCN)cc1)C(=O)[C@@H](N)CCCCN.Cl.Cl.Cl.Cl | 0.5 | – | 2 | 1 | 1 | 93 | 93
14 | CCCCCCCCCCN(CCCOc1ccccc1-c1ccccc1OCCCN(CCCCCCCCCC)C(=O)[C@@H](N)CCCCN)C(=O)[C@@H](N)CCCCN.Cl.Cl.Cl.Cl | 8 | – | 8 | 8 | 8 | 40 | 5
15 | CCCCCCN(CCOc1ccc(OCCN(CCCCCC)C(=O)[C@@H](N)CCCCN)cc1)C(=O)[C@@H](N)CCCCN.Cl.Cl.Cl.Cl | 8 | – | 64 | 64 | 4 | > 1000 | > 250
16 | CCCCCCCCN(CCCOc1ccc(-c2ccc(OCCCN(CCCCCCCC)C(=O)[C@@H](N)CCCCN)cc2)cc1)C(=O)[C@@H](N)CCCCN.Cl.Cl.Cl.Cl | 2 | – | 4 | 4 | 2 | < 0.25 | < 0.125
17 | CCCCCCCN(CCOc1ccc(OCCN(CCCCCCC)C(=O)[C@H](C)N)cc1)C(=O)[C@H](C)N.Cl.Cl | 2 | – | 2 | 2 | 1 | 76 | 76
18 | CCCCCCN(CCCOc1ccccc1)C(=O)[C@@H](N)CCCCN.Cl.Cl | 64 | – | 128 | 128 | 64 | > 1000 | > 15.6
19 | CCCCCCCCCN(CCCOc1ccc(OCCCN(CCCCCCCCC)C(=O)[C@@H](N)CCCCN)cc1)C(=O)[C@@H](N)CCCCN.Cl.Cl.Cl.Cl | 1 | – | 2 | 1 | 2 | 11 | 10.5
20 | CCCCCCCCN(CCCOc1ccc(OCCCN(CCCCCCCC)C(=O)[C@@H](N)CCCCN)cc1)C(=O)[C@@H](N)CCCCN.Cl.Cl.Cl.Cl | 1 | – | 2 | 1 | 2 | 37 | 18.5
21 | CCCCCCCN(CCOc1ccc(OCCN(CCCCCCC)C(=O)[C@@H](N)Cc2ccccc2)cc1)C(=O)[C@@H](N)Cc1ccccc1.Cl.Cl | 1 | – | > 128 | > 128 | 2 | 145 | 72.5
22 | CCCCCCCCCN(CCCOc1ccccc1)C(=O)[C@@H](N)CCCCN.Cl.Cl | 2 | – | 8 | 8 | 2 | 89 | 45.5
23 | CCCCCCCCN(CCCOc1cccc(-c2cccc(OCCCN(CCCCCCCC)C(=O)[C@@H](N)CCCCN)c2)c1)C(=O)[C@@H](N)CCCCN.Cl.Cl.Cl.Cl | 1 | – | 2 | 2 | 2 | 15 | 7.5
24 | CCCCCCCN(CCCOc1ccccc1OCCCN(CCCCCCC)C(=O)[C@@H](N)CCCCN)C(=O)[C@@H](N)CCCCN.Cl.Cl.Cl.Cl | 1 | 0.5 | 16 | 8 | 2 | > 1000 | > 500
25 | CCCCCCCCN(CCCCOc1ccc(OCCCCN(CCCCCCCC)C(=O)[C@@H](N)CCCCN)cc1)C(=O)[C@@H](N)CCCCN.Cl.Cl.Cl.Cl | 1 | – | 2 | 1 | 2 | 28 | 14
